As a reminder, the IC50 is the point on the concentration scale where inhibition reaches its midpoint.

Series [1] has as its system C666-1-GFP-Luc2 xenograft. The series is described as follows: In vivo efficacy in C666-1-GFP-Luc2 xenograft model. The arrangement: species or system NOD scid gamma female mice. From the text: Next, we assessed the anticancer efficacy of the Cu(II) complex on another NPC xenograft, the EBV positive C666-1-GFP-Luc2 cells. […] Two mice in this group completed the 14 doses but died on the last day of the experiment while one mouse died on day 13 after receiving 12 doses of the Cu(II) complex. […] Harvested major organs sections stained with hematoxylin and eosin dyes were also examined. […] Therefore, no toxicity was found in mice carrying nasopharyngeal C666-1-GFP-Luc2 when treated with Cu(II) complexes at the doses of 4 mg/kg and 5 mg/kg. The underlying cause of death, presumed to be due to toxicity at the dose of 6 mg/kg, could not be ascertained conclusively because although the liver size was smaller in the treated group, the histopathology of the liver appeared normal and no other abnormalities were detected other than lower spleen size.
(§1) 2.0 x 10^6 HK1 or C666-1-GFP-Luc2 cells in 100 μl RPMI media mixed with matrigel (BD Matrigel Basement Membrane Matrix; BD Biosciences, Bedford, MA, USA) was inoculated subcutaneously into the right lower flank of the NSG mice. Tumor growth was monitored and measured every other day using a digital caliper (Mitutoyo America Corporation, Aurora, Illinois, USA) until they reached 100–250 mm^3. Then, the mice were randomly assigned into treatment groups. The mice bearing HK1 xenograft tumor were divided into 3 treatment groups and a control (normal saline) group. The first batch received normal saline (one injection daily for 5 days), 6 mg/kg (one injection daily for 5 days) and 8 mg/kg (one injection every other day for 3 doses) of Cu(II) complex while the second batch received normal saline (one injection daily for 4 days), 4 mg/kg (one injection daily for 4 days), 6 mg/kg (one injection daily for 4 days) and 8 mg/kg (one injection every other day for 2 doses) of Cu(II) complex via intraperitoneal route.
Subsequently, for the efficacy assay using mice bearing C666-1-GFP-Luc2 cells, 3 sets of control group versus experimental group were tested in three independent experiments. Mice were randomly assigned into 4, 5 or 6 mg/kg Cu(II) complex and their control groups respectively. Injections were given once daily for 12 to 18 days. Body weight change, food intake, signs of toxicity/morbidity as well as mortality were observed and recorded daily for the duration of the entire experiment. Tumor volumes were determined using a caliper thrice weekly. Tumor volumes were calculated according to the following formula: Tumor volume (mm^3) = (length [mm] X width^2 [mm^2])/2. At the end point of the studies, mice were placed under anesthesia for blood collection via submandibular and cardiac puncture before they were sacrificed for histopathological investigations. Tumors were harvested, imaged, weighed and fixed in formalin.
All H&E-stained tissue section slides were examined under Nikon Eclipse Ni microscope (Nikon Instruments Inc., New York, USA) and microscopic images were taken using 20x and 40x objectives. For H&E tumor section slides, the percentage of tumor necrosis was determined qualitatively using microscope by the histopathologist in order to estimate the percentage of necrotic area induced by the Cu(II) complex in the tumors. For determination of femoral bone marrow suppression, low power (10x magnification) objective was used to scan the slides while 100x magnification to assess the degree of cellularity and amount of fat present.
Firstly, 4 ml of rhodamine stock solution was combined with 46 ml of acetate buffer solution in order to prepare a working rhodamine solution. Tissue sections were prepared, deparaffinized and hydrated in distilled water. Then, a loosely capped staining jar containing working rhodamine was warmed in the microwave oven (Panasonic Corporation, Osaka, Japan). The slide with tissue section was placed in warmed working rhodamine solution and reheated using microwave oven. […]

The test system of series [2] is HK1 xenograft. The series is described as follows: In vivo efficacy in HK1 xenograft model. The arrangement: species or system NOD scid gamma female mice. The protocol: Recognizing the relative lack of treatment options for advanced NPC compared to other major cancers in Malaysia and based on our previous finding of the anticancer activity against NPC cells, we proceeded to validate the anticancer properties of the Cu(II) complex in vivo using NPC xenograft models. To test the compound in vivo in the preclinical models, two pilot studies were carried out using the Cu(II) complex. First, the effects of the Cu(II) complex were investigated on HK1 xenograft bearing mice at three different dosage regimens (4, 6 and 8 mg/kg). […] Even though treatment with Cu(II) complex at 8 mg/kg every other day up to 3 doses was effective, 2 out of 7 mice were found deadand the experiment had to be terminated.
as §1

Series [3] deals with CYP isoforms 1A2, 2C9, 2C19, 2D6, 2B6, 2C8 and 3A4. The series is described as follows: CYP450 inhibition assay, summary over all tested isoforms. The format is in vitro ADME, human. Particulars: pooled probe substrates; read-out: IC50 values against all tested isoforms. The protocol: In the CYP inhibition assay, human liver microsomes were incubated with the Cu(II) complex or reference standard. The inhibitory effects of these compounds were investigated against the major CYP isoforms namely 1A2, 2C9, 2C19, 2D6, 2B6, 2C8 and 3A4 with their respective isoform probe substrates in one reaction mixture (pooled probe substrate format using LC-MS/MS).
Pooled human liver microsomes (Sekisui Xeno Tech, LLC., Kansas City, KS, USA) were incubated with different concentrations of Cu(II) complex or reference standards in buffer containing 0.1% DMSO for 10 min at 37°C and the residual enzyme activity was measured using pooled probe substrates method by pooled LC-MS/MS. Briefly, incubation mixtures were prepared in a total volume of 200 μL with final component concentrations as follows: 0.1 M potassium phosphate buffer (pH 7.4), 1.5 mM NADPH, and 0.25 mg/ml HLM. […] After 20 min of incubation, the reactions were terminated by addition of 200 μL ice-cold acetonitrile (Rankem, Avantor Performance Materials India Limited, Andhra Pradesh, India) containing telmisartan and carbamazepine as internal standards (all probe substrates and standards were from Sigma Aldrich). […] The percent inhibition was calculated using the following equation: %Inhibition=100‑[(activityintestwells/activityinbasalcontrolwells)×100]

The structures appear in SMILES notation.

For `CC(C)(N)C(=O)[O-].O.O=[N+]([O-])[O-].[Cu+2].c1cnc2c(c1)ccc1cccnc12` [Cu(II) complex, [Cu(phen)(C-dmg)(H2O)]NO3], the tumor growth result in series [1] (4 mg/kg ip daily, 18 days) is reported as “not effective”; in series [1] (5 and 6 mg/kg ip daily) it was “significant tumor growth inhibition”; in series [2] (4, 6 and 8 mg/kg ip), “significantly inhibited the growth of HK1 tumor”. Besides, the “survival throughout the experiment” value in series [1] (6 mg/kg ip daily) is given as “only one mouse out of four”. Further, the “Copper staining of liver sections” value in series [1] (4, 5 and 6 mg/kg) is “negative for copper deposits”. The body weight result in series [1] (4, 5 and 6 mg/kg) is “little influence”. The “weight of vital organs” value in series [1] (4, 5 and 6 mg/kg, except for liver in the 6 mg/kg group) is reported as “no significant differences”; in series [2] (all treatment groups vs control), “not significantly affected”. In addition, the tolerability result in series [1] (4 and 5 mg/kg dose regimens) is reported as “well tolerated”. The “Histopathological examination of heart, liver, kidney and lung” value in series [1] (all the groups) is “did not show any obvious abnormal changes”; in series [2] (all the groups) it was “did not show any remarkable changes”. Besides, the “necrotic area in the tumor xenografts” value in series [1] (treated groups vs control groups, concentration dependent) is given as “higher percentage of necrotic area”. In addition, the mice found dead in series [2] (8 mg/kg every other day up to 3 doses) is recorded as 2 out of 7. For the same molecule, in series [2] (4 and 6 mg/kg dose regimens), the “tolerability / body weight” value is given as “well tolerated with no significant body weight loss”. Further, the half-inhibitory concentration (IC50) in series [3] was in the range of 5 to 10 µM.

The values above are taken from publication PMC5766233, “Ternary copper(II) complex: NCI60 screening, toxicity studies, and evaluation of efficacy in xenograft models of nasopharyngeal carcinoma” (PLoS ONE, 2018).
